This is an account of results in the NIST ThermoML archive (doi:10.1021/je201334p).

The nature of data set [1]: refractive index (Na D-line) (dimensionless). The settings on record: Liquid, Standard Abbe refractometry.
For data set [2] the following is noted: 101 kPa, Liquid; for speed of sound: Sing-around technique in a fixed-path interferometer; for mass density: Vibrating tube method.
Data set [3] is described as follows: molar heat capacity at constant pressure. The settings on record: 101.33 kPa, Liquid, Small sample (50 mg) DSC.

Each structure is given as a SMILES string. ± gives the expanded uncertainty stated by the source.

The refractive index is a measure of how strongly the sample bends light. Usually speed of sound stands for the propagation velocity of pressure waves in the medium. A word on the mass density: it is the mass of a sample divided by its volume. For `CCCC[n+]1cccc(C)c1.O=S(=O)([O-])C(F)(F)F` [1-butyl-3-methylpyridinium trifluoromethanesulfonate], the refractive index in data set [1] (288.15 K, 101 kPa) turned out to be 1.46446 ± 0.00053; in data set [1] (288.15 K, 101.33 kPa), 1.46446 ± 0.00053; in data set [1] (298.15 K, 101 kPa), 1.46155 ± 0.00053; in data set [1] (298.15 K, 101.33 kPa), 1.46155 ± 0.00053; in data set [1] (308.15 K, 101 kPa), 1.45868 ± 0.00053; in data set [1] (308.15 K, 101.33 kPa) it was 1.45868 ± 0.00053. For the same compound, the speed of sound in data set [2] (288.15 K) is 1436.1 ± 1.4 m/s; in data set [2] (298.15 K) it was 1412.3 ± 1.4 m/s; in data set [2] (308.15 K), 1389.6 ± 1.4 m/s. Moreover, the mass density came out at 1287.07 ± 0.61 kg/m3 in data set [2] (288.15 K), 1279.41 ± 0.6 kg/m3 in data set [2] (298.15 K) and 1271.8 ± 0.59 kg/m3 in data set [2] (308.15 K). Moreover, the “molar heat capacity at constant pressure” value in data set [3] (288.15 K) was found to be 496 ± 10 J/K/mol; in data set [3] (298.15 K) it was 520 ± 10 J/K/mol; in data set [3] (308.15 K), 535 ± 11 J/K/mol.
As to `CCCCCCn1cc[n+](C)c1.N#CN=C=[N-]` [1-hexyl-3-methylimidazolium dicyanamide], the refractive index in data set [1] (288.15 K, 101 kPa) came out at 1.50729 ± 0.00079; in data set [1] (288.15 K, 101.33 kPa), 1.50729 ± 0.00079; in data set [1] (298.15 K, 101 kPa) it was 1.50415 ± 0.00079; in data set [1] (298.15 K, 101.33 kPa) it was 1.50415 ± 0.00079; in data set [1] (308.15 K, 101 kPa) it was 1.501 ± 0.00079; in data set [1] (308.15 K, 101.33 kPa) it was 1.501 ± 0.00079. Besides, the speed of sound in data set [2] (288.15 K) worked out at 1713.4 ± 3.2 m/s; in data set [2] (298.15 K), 1687.7 ± 3.2 m/s; in data set [2] (308.15 K), 1662.7 ± 3.2 m/s. In addition, the mass density in data set [2] (288.15 K) amounted to 1034.76 ± 2.6 kg/m3; in data set [2] (298.15 K), 1028.56 ± 2.6 kg/m3; in data set [2] (308.15 K), 1022.4 ± 2.5 kg/m3. The figures for the “molar heat capacity at constant pressure” value in data set [3] (288.15 K), in data set [3] (298.15 K) and in data set [3] (308.15 K) were 510 ± 10 J/K/mol, 534 ± 11 J/K/mol and 548 ± 11 J/K/mol, respectively.
For `COS(=O)(=O)[O-].C[n+]1ccccc1` [1-methylpyridinium methylsulfate], the refractive index in data set [1] (288.15 K, 101 kPa) came to 1.51603 ± 0.00052; in data set [1] (288.15 K, 101.33 kPa), 1.51603 ± 0.00052; in data set [1] (298.15 K, 101 kPa) it was 1.5134 ± 0.00052; in data set [1] (298.15 K, 101.33 kPa) it was 1.5134 ± 0.00052; in data set [1] (308.15 K, 101 kPa) it was 1.51077 ± 0.00052; in data set [1] (308.15 K, 101.33 kPa), 1.51077 ± 0.00052. The speed of sound in data set [2] (288.15 K) was found to be 1901.1 ± 1.5 m/s; in data set [2] (298.15 K), 1875.8 ± 1.5 m/s; in data set [2] (308.15 K), 1852.4 ± 1.5 m/s. The mass density turned out to be 1352.86 ± 0.69 kg/m3 in data set [2] (288.15 K), 1346.12 ± 0.68 kg/m3 in data set [2] (298.15 K) and 1339.37 ± 0.67 kg/m3 in data set [2] (308.15 K). For the same compound, the “molar heat capacity at constant pressure” value in data set [3] (288.15 K) is 288 ± 6 J/K/mol; in data set [3] (298.15 K), 299 ± 6 J/K/mol; in data set [3] (308.15 K) it was 305 ± 6 J/K/mol.
